In one series the test system is U937 cells. As to the kind of experiment: MTT anti-proliferation assay, U937. The conditions noted are these: Homo sapiens, U-937, 48 h, read-out: IC50 tumor cell growth inhibition U937. It is filed as cell-based. (In general: Tetrazolium assays rely on reduction of a dye to a coloured formazan, in cell work by metabolically active cells.)
The test system of a further series is K562 cells. Briefly: MTT anti-proliferation assay, K562. The series is classed as cell-based. Conditions: Homo sapiens, K562, 48 h, read-out: IC50 tumor cell growth inhibition K562.
For a further series, the system named is HL60 cells. As to the kind of experiment: MTT anti-proliferation assay, HL60. The series is classed as cell-based. The conditions noted are these: Homo sapiens, HL-60, 48 h, read-out: IC50 tumor cell growth inhibition HL60.
The test system of the next series is MCF7 cells. As to the kind of experiment: MTT anti-proliferation assay, MCF7. Conditions: Homo sapiens, MCF7, 48 h, read-out: IC50 tumor cell growth inhibition MCF7. The series is classed as cell-based.
For the next series, the system named is PC3 cells. As to the kind of experiment: MTT anti-proliferation assay, PC3. The conditions noted are these: Homo sapiens, PC-3, 48 h, read-out: IC50 tumor cell growth inhibition PC3. It is filed as cell-based.
Series [1] deals with U937 cell line. Briefly: Western blot of acetylated histone H3, H4, p21 and acetylated tubulin in U937. It is filed as cell-based, Human. Conditions: U937, 1 µM; for cell permeability and intracellular HDAC inhibition: 6h and 24h, western blot; for acetylated tubulin level, 24h: after 24h. In general terms: A western blot detects proteins with antibodies after separation by electrophoresis.

The test system of series [2] is U937 cell line. As to the kind of experiment: Western blot of c-Raf, p-Erk, Erk, p-Akt, Akt in U937. Conditions: U937, 1 µM, 24h. It is filed as cell-based, Human.
The test system of the next series is U937 xenograft. As to the kind of experiment: In vivo antitumor assay against U937 xenograft. Details: species or system athymic nude mice. Conditions: 100 mg/kg/d intragastric, 16 days; for mean weight of tumors: negative control 2.66 g.
The nature of series [3]: Body weight and organ toxicity in the U937 xenograft study. The series is classed as in vivo. The conditions noted are these: 100 mg/kg/d intragastric, measured every two days.
Another series can be described thus: Water solubility. The series is classed as physicochemical. Conditions: compared among the derived molecules.

For orientation: IC50 means the concentration needed to halve the response being measured.

As for `O=C(NO)c1ccc(NC(=O)[C@@H](NS(=O)(=O)c2cccc3ccccc23)c2ccccc2)cc1` [Compound D5, (S)-N-hydroxy-4-(2-(naphthalene-1-sulfonamido)-2-phenylacetamido)benzamide], the half-inhibitory concentration (IC50) in the series with U937 cells was 1630 ± 90 nM; in the series with K562 cells, 930 ± 20 nM; with HL60 cells it was 2880 ± 160 nM; with MCF7 cells it was 8660 ± 730 nM; in the series with PC3 cells, 10100 ± 570 nM. Also, in the series on U937 cell line [1], the “cell permeability and intracellular HDAC inhibition” value is “cell permeable and can inhibit intracellular and even nuclear HDACs”. Further, the “acetylated tubulin level, 24h” value in the series on U937 cell line [1] is “still significant”.

As for `COc1ccccc1C(=O)N[C@H](C(=O)Nc1ccc(C(=O)NO)cc1)c1ccccc1` [Compound D11, (S)-N-(2-((4-(hydroxycarbamoyl)phenyl)amino)-2-oxo-1-phenylethyl)-2-methoxybenzamide], the half-maximal inhibitory concentration (IC50) in the series on U937 cells was found to be 1710 ± 30 nM; with K562 cells, 3160 ± 110 nM; in the series with HL60 cells, 780 ± 20 nM; in the series with MCF7 cells it was 8230 ± 320 nM; in the series with PC3 cells, 20500 ± 1730 nM.

In the case of `O=C(NO)c1ccc(NC(=O)[C@@H](NC(=O)c2ccc(F)cc2)c2ccccc2)cc1` [Compound D4, (S)-4-fluoro-N-(2-((4-(hydroxycarbamoyl)phenyl)amino)-2-oxo-1-phenylethyl)benzamide], the IC50 in the series on U937 cells was determined as 1640 ± 80 nM; with K562 cells, 1590 ± 60 nM; in the series with HL60 cells, 4550 ± 210 nM; in the series with MCF7 cells, 2040 ± 170 nM; in the series with PC3 cells, 5880 ± 360 nM.

For `O=C(NO)c1ccc(NC(=O)[C@@H](NC(=O)c2ccc3ccccc3c2)c2ccccc2)cc1` [Compound D3, (S)-N-(2-((4-(hydroxycarbamoyl)phenyl)amino)-2-oxo-1-phenylethyl)-2-naphthamide], the IC50 with U937 cells came out at 1320 ± 70 nM; with K562 cells it was 1190 ± 40 nM; in the series on HL60 cells, 3150 ± 130 nM; with MCF7 cells it was 2920 ± 150 nM; in the series on PC3 cells, 3770 ± 270 nM. In the series with U937 cell line [1], the “cell permeability and intracellular HDAC inhibition” value was “cell permeable and can inhibit intracellular and even nuclear HDACs”. Also, the “acetylated tubulin level, 24h” value in the series on U937 cell line [1] is “still significant”. Further, the p-Akt level result with U937 cell line [2] is on record as “significantly decreased”.

Turning to `COc1ccccc1NC(=O)N[C@H](C(=O)Nc1ccc(C(=O)NO)cc1)c1ccccc1` [Compound D18, (S)-N-hydroxy-4-(2-(3-(2-methoxyphenyl)ureido)-2-phenylacetamido)benzamide], the half-inhibitory concentration (IC50) with U937 cells worked out at 1310 ± 70 nM; in the series on K562 cells, 1550 ± 50 nM; in the series with HL60 cells it was 3830 ± 290 nM; with MCF7 cells, 5140 ± 430 nM; in the series with PC3 cells it was 1510 ± 50 nM. Besides, the “cell permeability and intracellular HDAC inhibition” value in the series on U937 cell line [1] is “cell permeable and can inhibit intracellular and even nuclear HDACs”. For the same compound, in the series on U937 cell line [1], the “acetylated tubulin level, 24h” value is “reduced”.

Turning to `O=C(CCCCCCC(=O)Nc1ccccc1)NO` [SAHA, Suberoyl anilide hydroxamic acid, reference compound], in the series with K562 cells, the half-maximal inhibitory concentration (IC50) was 1860 ± 70 nM. The “mean weight of tumors” value in the series on U937 xenograft was 2.00 g.

In the case of `O=C(NO)c1ccc(NC(=O)[C@@H](NC(=O)c2cccc(Br)c2)c2ccccc2)cc1` [Compound D13, (S)-3-bromo-N-(2-((4-(hydroxycarbamoyl)phenyl)amino)-2-oxo-1-phenylethyl)benzamide], the IC50 with U937 cells is 1390 ± 30 nM; with K562 cells, 1580 ± 60 nM; in the series on HL60 cells, 1530 ± 40 nM; in the series with MCF7 cells, 9710 ± 440 nM; in the series with PC3 cells, 31600 ± 2330 nM. For the same compound, the “cell permeability and intracellular HDAC inhibition” value with U937 cell line [1] is “cell permeable and can inhibit intracellular and even nuclear HDACs”. Moreover, the “acetylated tubulin level, 24h” value in the series on U937 cell line [1] is reported as “still significant”.

As for `CN(C)c1cccc2c(S(=O)(=O)N[C@H](C(=O)Nc3ccc(C(=O)NO)cc3)c3ccccc3)cccc12` [Compound D17, (S)-4-(2-(5-(dimethylamino)naphthalene-1-sulfonamido)-2-phenylacetamido)-N-hydroxybenzamide], the IC50 stood at 1240 ± 20 nM in the series on U937 cells; 700 ± 10 nM in the series on K562 cells; 3660 ± 130 nM in the series with HL60 cells; 5340 ± 220 nM in the series on MCF7 cells; 3310 ± 160 nM with PC3 cells. For the same compound, the “inhibitory ratio (tumor weight)” value with U937 xenograft was 53.57%. Also, the “mean weight of tumors” value with U937 xenograft is listed as 1.24 g. Further, the “mice body weight loss” value in series [3] is “No evidence of mice body weight (measured every two days) loss”. For the same compound, the water solubility result in “Water solubility” is recorded as “best water solubility”. Also, the “cell permeability and intracellular HDAC inhibition” value in the series on U937 cell line [1] is “cell permeable and can inhibit intracellular and even nuclear HDACs”. The “acetylated tubulin level, 24h” value with U937 cell line [1] is recorded as “reduced”. Besides, in the series with U937 cell line [2], the p-Akt level result was “significantly decreased”.

As for `O=C(NO)c1ccc(NC(=O)[C@@H](NC(=O)c2ccccc2)c2ccccc2)cc1` [Compound D7, (S)-4-(2-benzamido-2-phenylacetamido)-N-hydroxybenzamide], the IC50 with U937 cells was 1770 ± 60 nM; with K562 cells, 1470 ± 70 nM; in the series on HL60 cells it was 2020 ± 150 nM; in the series on MCF7 cells, 10800 ± 930 nM; in the series on PC3 cells it was 5670 ± 350 nM.

For `COc1ccc(C(=O)N[C@H](C(=O)Nc2ccc(C(=O)NO)cc2)c2ccccc2)cc1` [Compound D12, (S)-N-hydroxy-4-(2-(4-methoxybenzamido)-2-phenylacetamido)benzamide], the IC50 with U937 cells is 1550 ± 40 nM; in the series with K562 cells, 1930 ± 120 nM; with HL60 cells, 1800 ± 90 nM; in the series with MCF7 cells it was 6280 ± 330 nM; in the series with PC3 cells it was 3000 ± 150 nM.

These data come from article PMC3947464 (ChemMedChem, 2013).
